# Results published in PubChem BioAssay (NCI).
#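 Growth conditions: 96-well plates. Treatment: test compound, 48 hours, 5 concentrations. Analysis: linear interpolation between bracketing concentrations; unreached endpoints set to highest concentration. GI50 = concentration required for 50% inhibition of growth. TGI denotes the concentration required for complete inhibition of growth.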
# How the values were obtained:
# Test in all cases: growth of human tumour cells (NCI), 48 h
# SF-295 CNS = system: SF-295 CNS
# LOX IMVI melanoma = system: LOX IMVI melanoma
# TK-10 renal = system: TK-10 renal
# CCRF-CEM leukemia = system: CCRF-CEM leukemia
# EKVX NSCLC = system: EKVX NSCLC
# MDA-MB-231 breast = system: MDA-MB-231 breast
# NCI-H522 lung = system: NCI-H522 lung
# SK-MEL-2 melanoma = system: SK-MEL-2 melanoma
# OVCAR-8 ovarian = system: OVCAR-8 ovarian
# OVCAR-3 ovarian = system: OVCAR-3 ovarian
Compound,GI50 (SF-295 CNS),TGI (SF-295 CNS),GI50 (LOX IMVI melanoma),TGI (LOX IMVI melanoma),GI50 (TK-10 renal),TGI (TK-10 renal),GI50 (CCRF-CEM leukemia),TGI (CCRF-CEM leukemia),GI50 (EKVX NSCLC),TGI (EKVX NSCLC),GI50 (MDA-MB-231 breast),TGI (MDA-MB-231 breast),GI50 (NCI-H522 lung),TGI (NCI-H522 lung),GI50 (SK-MEL-2 melanoma),TGI (SK-MEL-2 melanoma),GI50 (OVCAR-8 ovarian),TGI (OVCAR-8 ovarian),GI50 (OVCAR-3 ovarian),TGI (OVCAR-3 ovarian)
CN(C)CCC(=O)Nc1ccc(-n2cc(-c3cccc(NC(=S)Nc4cccc(-c5cn(-c6ccc(NC(=O)CCN(C)C)cc6)nn5)c4)c3)nn2)cc1,20.2 µM,49 µM,7.7 µM,> 100 µM,83.7 µM,> 100 µM,21.4 µM,78.3 µM,37.2 µM,> 100 µM,27.2 µM,58.5 µM,27.3 µM,> 100 µM,39.5 µM,> 100 µM,42.3 µM,> 100 µM,16.4 µM,53.4 µM
O=c1c(-c2ccc3c(c2)OCO3)coc2c3c(ccc12)OCO3,–,37.1 µM,–,> 100 µM,–,36.8 µM,–,> 100 µM,–,> 100 µM,–,41 µM,–,37.5 µM,–,> 100 µM,–,–,–,> 100 µM
CCOC(=O)Nc1ccc2nc(-c3cscn3)[nH]c2c1,4.78 µM,57.6 µM,5.18 µM,> 100 µM,28.6 µM,> 100 µM,7.01 µM,> 100 µM,–,–,7.81 µM,> 100 µM,2.43 µM,21 µM,3.25 µM,> 100 µM,7.89 µM,> 100 µM,3.79 µM,23.4 µM
OCc1ccc(N(Cc2ccc(F)cc2)Cc2ccc(F)cc2)cc1Cl,–,–,9.51 µM,23.3 µM,2.08 µM,11.2 µM,13.1 µM,33.9 µM,–,–,11.8 µM,25.9 µM,9.39 µM,25.9 µM,10.6 µM,26.9 µM,12.5 µM,27.8 µM,10.3 µM,22.7 µM
COc1ccc(-n2cc(-c3ccc(OC)c(OC)c3)[nH]c2=O)cc1,> 100 µM,> 100 µM,> 100 µM,> 100 µM,> 100 µM,> 100 µM,> 100 µM,> 100 µM,> 100 µM,> 100 µM,> 100 µM,> 100 µM,> 100 µM,> 100 µM,> 100 µM,> 100 µM,–,–,> 100 µM,> 100 µM
